Legend:
[1] = test system: ATF4 expression, HEK293T cells carrying the ATF4 luciferase reporter; assay: ATF4 expression inhibition assay (ATF4 luciferase reporter); assay type: cell-based; settings: Homo sapiens, HEK-293T, 100 nM thapsigargin, 3 hours
Procedure: The ATF4 reporter was prepared by fusing the human full length 5′UTR of ATF4 (NCBI Accession No. BC022088.2) upstream of the firefly luciferase coding sequence lacking the initiator methionine. The fused sequence was cloned into pLenti-EFla-C-Myc-DDK-IRES-Puro cloning vector (Origen #PS100085) using standard methods. Virus production was carried out by using Lenti-X™ Packaging Single Shots Protocol (Clonetech #631276). Viral particles were used to transduce HEK293T cells (ATCC #CRL-3216, ATCC Manassas, Va.), which were subsequently selected with puromycin to generate stable cell line. Cells were maintained at 37° C. and 5% CO2 in DMEM-F12 (Hyclone #SH30023.02) supplemented with 10% heat-inactivated fetal bovine serum (Gibco #16000-044), 2 mM L-glutamine (Gibco #25030-081), 100 U/ml penicillin, and 100 μg/ml streptomycin (Gibco #^15140-122).
HEK293T cells carrying the ATF4 luciferase reporter were plated on 96-well plates (Nunc) at 10,000 cells per well. Cells were treated two days after seeding with 100 nM thapsigargin (Tg) (Sigma-Aldrich #T9033) in the presence of different concentrations of selected compounds ranging from 1 nM to 10 μM. Cells without treatment or cells treated with Tg alone were used as controls. Assay plates containing cells were incubated for 3 hours at 37° C.
Luciferase reactions were performed using Luciferase Assay System (Promega #E1501) as specified by the manufacturer. Luminescence was read with an integration time of 1 s and a gain of 110 using a Cytation-5 multi-mode microplate reader (BioTek). Relative luminescence units were normalized to Tg treatment (0% inhibition) and untreated cells (100% inhibition) and the percentage of ATF4 inhibition was calculated.
Accordingly, inhibition of ATF4 expression as a result of the test compound indicates suppression of the ISR pathway.

[2] = test system: Chinese hamster ovary (CHO) cells; assay: Protein synthesis assay (puromycin incorporation, western blot); assay type: cell-based; settings: 2 hours, media alone = 100%; for activity at 1 µM: Cricetulus griseus, unstressed CHO cells (without Tg), 1 μM test compound, read-out: % Protein synthesis relative to untreated (1 μM test compound); for % Recovery of protein synthesis (1 μM test compound): stressed CHO cells, 300 nM Tg plus 1 μM test compound, Tg alone = 0%
Procedure: Chinese hamster ovary (CHO) cells were maintained at 37° C. and 5% CO2 in Dulbecco's Modified Eagle's Media (DMEM) supplemented with 10% fetal bovine serum, 2 mM L-glutamine, 100 U/ml penicillin, and 100 μg/ml streptomycin. After reaching 80% of confluence, cells were detached and seeded on 6 well plates in complete media, allowed to recover overnight and treated for 2 hours with 1 μM of the test compound (to assess protein synthesis levels in unstressed condition), or for 2 hours with 300 nM Tg in the presence of 1 μM of the test compound (to assess the recovery of protein synthesis in a stressed condition). Cells with Tg alone were used as controls.
After the 2 hours treatments, media were replaced by adding 10 μg/ml puromycin (Sigma Aldrich #P8833) in complete media for 30 min. Media were removed and cells were lysed with SDS-PAGE lysis buffer. Lysates were transferred to 1.5 ml tubes and sonicated for 3 min and total protein amount were quantified using BCA Protein Assay Kit (Pierce). Equal amount of protein (30 μg) was loaded on SDS-PAGE gels. Proteins were transferred onto […] PVDF membranes (BioRad) and probed with primary antibodies diluted in Tris-buffered saline supplemented with 0.1% Tween 20 (Merck #S6996184 505) and 3% bovine serum albumin (Rockland #BSA-50).
Puromycin (12D10) (Merck #MABE343) and j-actin (Sigma Aldrich #A5441) antibodies were used as primary antibody. A HRP-conjugated secondary antibody (Rockland) was employed to detect immune-reactive bands using enhanced chemiluminescence (ECL Western Blotting Substrate, Pierce). Quantification of protein bands was done by densitometry using ImageJ software.
Percent increase of protein synthesis in unstressed cells (without Tg treatment) in the presence of media alone or certain test compounds is shown in Table 3. The percentage levels were normalized to the media alone condition, which correspond to 100% protein synthesis.
Percent recovery of protein synthesis in stressed cells (with Tg treatment) due to the test compounds at 1 μM is also shown in Table 3. The levels were normalized to the media alone and Tg alone conditions, which correspond to 100% and 0% respectively.

Question: With `NC(COc1ccc(Cl)c(F)c1)CN1CCC(NC(=O)c2ccc3cc(Cl)ccc3n2)CC1` (centres unmarked) [Compound 1, N-(1-(2-amino-3-(4-chloro-3-fluorophenoxy)propyl)piperidin-4-yl)-6-chloroquinoline-2-carboxamide] as the molecule, how does the IC50 [1] read?
Answer: The IC50 was > 1000 nM.

Question: What about the activity at 1 µM [2] of the same molecule?
Answer: Its activity at 1 µM is 167%.

Question: What about the “% Recovery of protein synthesis (1 μM test compound)” value (“% Recovery of protein synthesis” for short) [2] of the same molecule?
Answer: Its value is 233.4%.

Question: What does the source list for `O=C(COc1ccc(Cl)c(F)c1)NC1CC2CCC1CN2CC(O)COc1ccc(Cl)c(F)c1` (centres unmarked) [Compound 2, 2-(4-chloro-3-fluorophenoxy)-N-(2-(3-(4-chloro-3-fluorophenoxy)-2-hydroxypropyl)-2-azabicyclo[2.2.2]octan-5-yl)acetamide]?
Answer: IC50 [1]: < 1000 nM; activity at 1 µM [2]: 98.3%; % Recovery of protein synthesis (1 μM test compound) [2]: 252.0%

Question: Which results are given for `O=C(COc1ccc(Cl)c(F)c1)N[C@H]1CC[C@H](NC(=O)c2nc3ccc(Cl)cc3[nH]2)CC1` [Compound 3, trans-6-chloro-N-(4-(2-(4-chloro-3-fluorophenoxy)acetamido)cyclohexyl)-1H-benzo[d]imidazole-2-carboxamide]?
Answer: IC50 [1]: < 1000 nM; activity at 1 µM [2]: 120%; % Recovery of protein synthesis (1 μM test compound) [2]: 109.9%

Question: Which results are given for `O=C(NC1CCN(CC(O)COc2ccc(Cl)c(F)c2)CC1)c1nc2ccc(Cl)cc2[nH]1` (centres unmarked) [Compound 4, 6-chloro-N-(1-(3-(4-chloro-3-fluorophenoxy)-2-hydroxypropyl)piperidin-4-yl)-1H-benzo[d]imidazole-2-carboxamide]?
Answer: IC50 [1]: < 1000 nM; activity at 1 µM [2]: 164%; % Recovery of protein synthesis (1 μM test compound) [2]: 246.6%

Question: What does the source list for `O=C(COc1ccc(Cl)c(F)c1)NCC1CCN(CC(O)COc2ccc(Cl)c(F)c2)CC1` (centres unmarked) [Compound 5, 2-(4-chloro-3-fluorophenoxy)-N-((1-(3-(4-chloro-3-fluorophenoxy)-2-hydroxypropyl)piperidin-4-yl)methyl)acetamide]?
Answer: IC50 [1]: > 1000 nM; activity at 1 µM [2]: 82.5%; % Recovery of protein synthesis (1 μM test compound) [2]: 71.9%

Question: What does the source list for `O=C(NCC1CCN(CC(O)COc2ccc(Cl)c(F)c2)CC1)c1cc2cc(Cl)ccc2o1` (centres unmarked) [Compound 6, 5-chloro-N-((1-(3-(4-chloro-3-fluorophenoxy)-2-hydroxypropyl)piperidin-4-yl)methyl)benzofuran-2-carboxamide]?
Answer: IC50 [1]: < 1000 nM; activity at 1 µM [2]: 179%

Question: What does the source list for `O=C(NCC1CCN(CC(O)COc2ccc(Cl)c(F)c2)CC1)c1ccc2cc(Cl)ccc2n1` (centres unmarked) [Compound 7, 6-chloro-N-((1-(3-(4-chloro-3-fluorophenoxy)-2-hydroxypropyl)piperidin-4-yl)methyl)quinoline-2-carboxamide]?
Answer: IC50 [1]: > 1000 nM; activity at 1 µM [2]: 114%; % Recovery of protein synthesis (1 μM test compound) [2]: 131.9%

Question: With `O=C(N[C@H]1CC[C@H](NCC(O)COc2ccc(Cl)cc2)CC1)c1nc2ccc(Cl)cc2[nH]1` (stereo partly drawn) [Compound 8, trans-6-chloro-N-(4-((3-(4-chlorophenoxy)-2-hydroxypropyl)amino)cyclohexyl)-1H-benzo[d]imidazole-2-carboxamide] as the molecule, how does the IC50 [1] read?
Answer: The IC50 was > 1000 nM.

Question: And the activity at 1 µM [2]?
Answer: The activity at 1 µM was 175%.

Question: And the “% Recovery of protein synthesis” value [2]?
Answer: Its value is 128.3%.

Question: How did the IC50 [1] turn out when `O=C(COc1ccc(Cl)c(F)c1)NC[C@H]1CC[C@H](NC(=O)COc2ccc(Cl)c(F)c2)CC1` [Compound 9, trans-2-(4-chloro-3-fluorophenoxy)-N-((4-(2-(4-chloro-3-fluorophenoxy)acetamido)cyclohexyl)methyl)acetamide] was run?
Answer: Its IC50 is 72.4 nM.

Question: And the activity at 1 µM [2]?
Answer: Its activity at 1 µM is 119%.

Question: What about the “% Recovery of protein synthesis” value [2] of the same molecule?
Answer: Its value is 26.1%.

Question: Which results are given for `O=C(COc1ccc(Cl)c(F)c1)NC[C@H]1CC[C@H](NC(=O)c2ccc3cc(Cl)ccc3n2)CC1` [Compound 12, trans-6-chloro-N-(4-((2-(4-chloro-3-fluorophenoxy)acetamido)methyl)cyclohexyl)quinoline-2-carboxamide]?
Answer: IC50 [1]: 120 nM; activity at 1 µM [2]: 200%; % Recovery of protein synthesis (1 μM test compound) [2]: 187.4%

Question: `O=C(COc1ccc(Cl)c(F)c1)NC[C@H]1CC[C@H](NC(=O)c2cc3cc(Cl)ccc3o2)CC1` [Compound 13, trans-5-chloro-N-(4-((2-(4-chloro-3-fluorophenoxy)acetamido)methyl)cyclohexyl)benzofuran-2-carboxamide] was tested. Which IC50 [1] did it give?
Answer: The IC50 was 19 nM.

Question: And the activity at 1 µM [2]?
Answer: The activity at 1 µM was 129%.

Question: What about the “% Recovery of protein synthesis” value [2] of the same molecule?
Answer: Its value is 120.4%.

Question: Which results are given for `O=C(COc1ccc(Cl)c(F)c1)NC[C@H]1CC[C@H](NCC(O)COc2ccc(Cl)c(F)c2)CC1` (stereo partly drawn) [Compound 14, trans-2-(4-chloro-3-fluorophenoxy)-N-((4-((3-(4-chloro-3-fluorophenoxy)-2-hydroxypropyl)amino)cyclohexyl)methyl)acetamide]?
Answer: IC50 [1]: > 10000 nM; activity at 1 µM [2]: 150%; % Recovery of protein synthesis (1 μM test compound) [2]: 53.2%

Question: Which results are given for `O=C(COc1ccc(Cl)cc1)N[C@H]1CC[C@H](CNC(=O)c2cc3cc(Cl)ccc3o2)CC1` [Compound 15, trans-5-chloro-N-((4-(2-(4-chlorophenoxy)acetamido)cyclohexyl)methyl)benzofuran-2-carboxamide]?
Answer: IC50 [1]: 1.45 nM; activity at 1 µM [2]: 204%; % Recovery of protein synthesis (1 μM test compound) [2]: 176.3%

Question: `COc1ccc2oc(C(=O)NC[C@H]3CC[C@H](NC(=O)COc4ccc(Cl)c(F)c4)CC3)cc2c1` [Compound 16, trans-N-((4-(2-(4-chloro-3-fluorophenoxy)acetamido)cyclohexyl)methyl)-5-methoxybenzofuran-2-carboxamide] was tested. Which IC50 [1] did it give?
Answer: Its IC50 is 5.25 nM.

Question: And the activity at 1 µM [2]?
Answer: The activity at 1 µM was 147%.

Question: What about the “% Recovery of protein synthesis” value [2] of the same molecule?
Answer: Its value is 102.4%.

Question: `O=C(COc1ccc(Cl)c(F)c1)N[C@H]1CC[C@H](CNC(=O)c2ccc(Cl)cc2)CC1` [Compound 17, trans-4-chloro-N-((4-(2-(4-chloro-3-fluorophenoxy)acetamido)cyclohexyl)methyl)benzamide] was tested. Which IC50 [1] did it give?
Answer: The IC50 was 2.36 nM.

Question: And the activity at 1 µM [2]?
Answer: The activity at 1 µM was 96.5%.

Question: What about the “% Recovery of protein synthesis” value [2] of the same molecule?
Answer: The value was 49.5%.

Question: How did the IC50 [1] turn out when `O=C(COc1ccc(Cl)c(F)c1)N[C@H]1CC[C@H](CNC(=O)c2ccc(OC(F)(F)F)cc2)CC1` [Compound 18, trans-N-((4-(2-(4-chloro-3-fluorophenoxy)acetamido)cyclohexyl)methyl)-4-(trifluoromethoxy)benzamide] was run?
Answer: Its IC50 is 5.63 nM.

Question: And the activity at 1 µM [2]?
Answer: The activity at 1 µM was 105%.

Question: What about the “% Recovery of protein synthesis” value [2] of the same molecule?
Answer: The value was 60.0%.

Question: For `O=C(COc1ccc(Cl)c(F)c1)N[C@H]1CC[C@H](CNC(=O)c2ccc(Cl)cn2)CC1` [Compound 19, trans-5-chloro-N-((4-(2-(4-chloro-3-fluorophenoxy)acetamido)cyclohexyl)methyl)picolinamide], which IC50 [1] is on record?
Answer: Its IC50 is 20.1 nM.

Question: And the activity at 1 µM [2]?
Answer: Its activity at 1 µM is 131%.

Question: And the “% Recovery of protein synthesis” value [2]?
Answer: Its value is 32.5%.

Question: `O=C(COc1ccc(Cl)c(F)c1)N[C@H]1CC[C@H](CNC(=O)c2ccc(C(F)(F)F)cn2)CC1` [Compound 20, trans-N-((4-(2-(4-chloro-3-fluorophenoxy)acetamido)cyclohexyl)methyl)-5-(trifluoromethyl)picolinamide] was tested. Which IC50 [1] did it give?
Answer: The IC50 was 2.43 nM.

Question: And the activity at 1 µM [2]?
Answer: The activity at 1 µM was 75.6%.

Question: What about the “% Recovery of protein synthesis” value [2] of the same molecule?
Answer: Its value is 34.8%.

Question: How did the IC50 [1] turn out when `O=C(COc1ccc(Cl)c(F)c1)N[C@H]1CC[C@H](CNC(=O)c2cnc(C(F)F)cn2)CC1` [Compound 21, trans-N-((4-(2-(4-chloro-3-fluorophenoxy)acetamido)cyclohexyl)methyl)-5-(difluoromethyl)pyrazine-2-carboxamide] was run?
Answer: The IC50 was 17.8 nM.

Question: And the activity at 1 µM [2]?
Answer: The activity at 1 µM was 67.8%.

Question: What about the “% Recovery of protein synthesis” value [2] of the same molecule?
Answer: Its value is 11.4%.

Reference: US20210317102A1, “INHIBITORS OF INTEGRATED STRESS RESPONSE PATHWAY” (Praxis Biotech LLC, priority 2019, published 2021)
